Results from paper PMC9090415, “Discovery of small molecule inhibitors of Plasmodium falciparum apicoplast DNA polymerase” (Journal of Enzyme Inhibition and Medicinal Chemistry, 2022).

Molecular target: P. falciparum apicoplast DNA polymerase (Pf-apPOL) (Plasmodium falciparum, UniProt Q8ILY1)
Test: Fluorescence-based high-throughput DNA polymerase assay (molecular beacon), primary screen and dose-response
Format: biochemical
How it was run: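 Single-point screening used 10 µM compound with 20 nM polymerase, 20 nM hairpin substrate and 6 µM dNTPs for 90 min at 25 °C. Confirmatory titrations (2.5–80 µM) followed fluorescence at three times, and IC50 was derived from a fit including a cooperativity term n.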

[1] = DRC-1; concentration 80 (unit not given); 10'
[2] = primary screen value of the 186 hits; unit not given; 90 min, 10 µM
[3] = primary screen value; head prints only 'DNA Pol'; 90 min, 10 µM

P. falciparum apicoplast DNA polymerase (Pf-apPOL), sequence (Q8ILY1 entry or part of it): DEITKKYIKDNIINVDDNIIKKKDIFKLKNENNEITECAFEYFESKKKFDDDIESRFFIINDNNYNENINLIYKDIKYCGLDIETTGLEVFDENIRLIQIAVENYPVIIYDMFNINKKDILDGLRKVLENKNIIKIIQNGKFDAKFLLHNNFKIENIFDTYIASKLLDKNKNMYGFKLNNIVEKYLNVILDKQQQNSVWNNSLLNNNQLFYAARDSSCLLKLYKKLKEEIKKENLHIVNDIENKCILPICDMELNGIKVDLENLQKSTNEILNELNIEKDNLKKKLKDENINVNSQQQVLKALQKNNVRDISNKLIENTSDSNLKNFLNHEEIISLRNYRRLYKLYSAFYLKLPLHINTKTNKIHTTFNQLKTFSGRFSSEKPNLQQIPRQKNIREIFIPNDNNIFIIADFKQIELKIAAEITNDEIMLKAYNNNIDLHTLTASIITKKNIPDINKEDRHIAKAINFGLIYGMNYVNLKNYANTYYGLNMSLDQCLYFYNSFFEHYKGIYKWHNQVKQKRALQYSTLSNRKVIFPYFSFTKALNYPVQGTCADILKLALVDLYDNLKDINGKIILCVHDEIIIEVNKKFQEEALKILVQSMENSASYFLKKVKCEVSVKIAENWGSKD

Structure (SMILES): CCOc1ccc2cc(C3=NN(C(=O)CCC(=O)O)C(c4ccc(C)cc4)C3)c(=O)[nH]c2c1 (stereo not drawn) [KU0056200]
- % inhibition Apo pol 10' (DRC-1; concentration 2.5; 10'): 1.583%
- % inhibition Apol 90' (DRC-1; concentration 2.5; 90'): -4.0405%
- % inhibition apPOL 180' (DRC-1; concentration 2.5; 180'): -8.679%
- % inhibition Apo pol 10' (DRC-1; concentration 5; 10'): 6.049%
- % inhibition Apol 90' (DRC-1; concentration 5; 90'): 0.1368%
- % inhibition apPOL 180' (DRC-1; concentration 5; 180'): -5.456%
- % inhibition Apo pol 10' (DRC-1; concentration 10; 10'): 12.8328%
- % inhibition Apol 90' (DRC-1; concentration 10; 90'): 2.997%
- % inhibition apPOL 180' (DRC-1; concentration 10; 180'): -3.315%
- % inhibition Apo pol 10' (DRC-1; concentration 20; 10'): 32.0591%
- % inhibition Apol 90' (DRC-1; concentration 20; 90'): 18.8847%
- % inhibition apPOL 180' (DRC-1; concentration 20; 180'): 8.488%
- % inhibition Apo pol 10' (DRC-1; concentration 40; 10'): 80.8761%
- % inhibition Apol 90' (DRC-1; concentration 40; 90'): 73.3726%
- % inhibition apPOL 180' (DRC-1; concentration 40; 180'): 64.1358%
- % inhibition Apo pol 10' [1]: 88.576%
- % inhibition Apol 90' (DRC-1; concentration 80; 90'): 90.0975%
- % inhibition apPOL 180' (DRC-1; concentration 80; 180'): 90.0477%
- % inhibition Apo pol 5' (DRC-2; 5'; concentration 10): 23%
- % inhibition ApPOL 90' (DRC-2; 90'; concentration 10): 23%
- % inhibition ApPOL 90' (DRC-2; 90'; concentration 40): 73%
- % inhibition apPOL 180' (DRC-2; 180'; concentration 40): 73%
- % inhibition Apo pol 5' (DRC-2; concentration 2.5; 5'): 2.23%
- % inhibition Apol 40' (DRC-2; concentration 2.5; 40'): 0.754%
- % inhibition ApPOL 90' (DRC-2; concentration 2.5; 90'): -0.536%
- % inhibition apPOL 180' (DRC-2; concentration 2.5; 180'): -0.06%
- % inhibition Apo pol 5' (DRC-2; concentration 5; 5'): 4.72%
- % inhibition Apol 40' (DRC-2; concentration 5; 40'): 6%
- % inhibition ApPOL 90' (DRC-2; concentration 5; 90'): 4.71%
- % inhibition apPOL 180' (DRC-2; concentration 5; 180'): 1.23%
- % inhibition Apo pol 5' (DRC-2; concentration 10; 5'): 23%
- % inhibition Apol 40' (DRC-2; concentration 10; 40'): 25%
- % inhibition ApPOL 90' (DRC-2; concentration 10; 90'): 23%
- % inhibition apPOL 180' (DRC-2; concentration 10; 180'): 16%
- % inhibition Apo pol 5' (DRC-2; concentration 20; 5'): 42%
- % inhibition Apol 40' (DRC-2; concentration 20; 40'): 49%
- % inhibition ApPOL 90' (DRC-2; concentration 20; 90'): 47%
- % inhibition apPOL 180' (DRC-2; concentration 20; 180'): 39%
- % inhibition Apo pol 5' (DRC-2; concentration 40; 5'): 54%
- % inhibition Apol 40' (DRC-2; concentration 40; 40'): 70%
- % inhibition ApPOL 90' (DRC-2; concentration 40; 90'): 73%
- % inhibition apPOL 180' (DRC-2; concentration 40; 180'): 73%
- % inhibition Apo pol 5' (DRC-2; concentration 80; 5'): 55%
- % inhibition Apol 40' (DRC-2; concentration 80; 40'): 74%
- % inhibition ApPOL 90' (DRC-2; concentration 80; 90'): 78%
- % inhibition apPOL 180' (DRC-2; concentration 80; 180'): 82%
- DNA Pol [2]: 36
- DNA Pol [3]: 36

Structure (SMILES): O=C(O)c1cc([N+](=O)[O-])c(N2CCN(c3cccc(C(F)(F)F)c3)CC2)c([N+](=O)[O-])c1 [KU0076747]
- % inhibition Apo pol 10' (DRC-1; concentration 2.5; 10'): 9.057%
- % inhibition Apol 90' (DRC-1; concentration 2.5; 90'): 2.381%
- % inhibition apPOL 180' (DRC-1; concentration 2.5; 180'): -1.314%
- % inhibition Apo pol 10' (DRC-1; concentration 5; 10'): 24.3374%
- % inhibition Apol 90' (DRC-1; concentration 5; 90'): 17.3572%
- % inhibition apPOL 180' (DRC-1; concentration 5; 180'): 9.492%
- % inhibition Apo pol 10' (DRC-1; concentration 10; 10'): 20.6042%
- % inhibition Apol 90' (DRC-1; concentration 10; 90'): 12.0526%
- % inhibition apPOL 180' (DRC-1; concentration 10; 180'): 7.5333%
- % inhibition Apo pol 10' (DRC-1; concentration 20; 10'): 54.2328%
- % inhibition Apol 90' (DRC-1; concentration 20; 90'): 47.5478%
- % inhibition apPOL 180' (DRC-1; concentration 20; 180'): 35.8091%
- % inhibition Apo pol 10' (DRC-1; concentration 40; 10'): 87.2694%
- % inhibition Apol 90' (DRC-1; concentration 40; 90'): 81.5158%
- % inhibition apPOL 180' (DRC-1; concentration 40; 180'): 74.4081%
- % inhibition Apo pol 10' [1]: 98.3006%
- % inhibition Apol 90' (DRC-1; concentration 80; 90'): 92.5623%
- % inhibition apPOL 180' (DRC-1; concentration 80; 180'): 89.3704%
- % inhibition Apo pol 5' (DRC-2; 5'; concentration 10): 10%
- % inhibition Apol 40' (DRC-2; 40'; concentration 2.5): 10%
- % inhibition Apol 40' (DRC-2; 40'; concentration 40): 63%
- % inhibition Apol 40' (DRC-2; 40'; concentration 80): 75%
- % inhibition ApPOL 90' (DRC-2; 90'; concentration 2.5): 10%
- % inhibition ApPOL 90' (DRC-2; 90'; concentration 40): 63%
- % inhibition apPOL 180' (DRC-2; 180'; concentration 80): 75%
- % inhibition Apo pol 5' (DRC-2; concentration 2.5; 5'): 9%
- % inhibition Apol 40' (DRC-2; concentration 2.5; 40'): 10%
- % inhibition ApPOL 90' (DRC-2; concentration 2.5; 90'): 10%
- % inhibition apPOL 180' (DRC-2; concentration 2.5; 180'): 5%
- % inhibition Apo pol 5' (DRC-2; concentration 5; 5'): 16%
- % inhibition Apol 40' (DRC-2; concentration 5; 40'): 17%
- % inhibition ApPOL 90' (DRC-2; concentration 5; 90'): 15%
- % inhibition apPOL 180' (DRC-2; concentration 5; 180'): 8.45%
- % inhibition Apo pol 5' (DRC-2; concentration 10; 5'): 10%
- % inhibition Apol 40' (DRC-2; concentration 10; 40'): 8.56%
- % inhibition ApPOL 90' (DRC-2; concentration 10; 90'): 8%
- % inhibition apPOL 180' (DRC-2; concentration 10; 180'): 2.65%
- % inhibition Apo pol 5' (DRC-2; concentration 20; 5'): 20%
- % inhibition Apol 40' (DRC-2; concentration 20; 40'): 22%
- % inhibition ApPOL 90' (DRC-2; concentration 20; 90'): 21%
- % inhibition apPOL 180' (DRC-2; concentration 20; 180'): 12%
- % inhibition Apo pol 5' (DRC-2; concentration 40; 5'): 54%
- % inhibition Apol 40' (DRC-2; concentration 40; 40'): 63%
- % inhibition ApPOL 90' (DRC-2; concentration 40; 90'): 63%
- % inhibition apPOL 180' (DRC-2; concentration 40; 180'): 56%
- % inhibition Apo pol 5' (DRC-2; concentration 80; 5'): 64%
- % inhibition Apol 40' (DRC-2; concentration 80; 40'): 75%
- % inhibition ApPOL 90' (DRC-2; concentration 80; 90'): 77%
- % inhibition apPOL 180' (DRC-2; concentration 80; 180'): 75%
- DNA Pol [2]: 52
- DNA Pol [3]: 52
